{"source": "patent US8802597B2", "about": "“Herbicidal pyrimidines” (E I du Pont de Nemours and Company, priority 2003, dated 2014)", "type_in_all_cases": "in vivo", "key": {"[1]": {"test_system": "crabgrass (Digitaria sanguinalis)", "experiment": "Test A pre/postemergence", "procedure,_shortened": "(§1)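 Pre/post greenhouse screen; loam/sand soil; solvent + surfactant formulation; pre = directed soil spray at planting, post = 1–2 leaf plants, 2–10 cm; ~10 d; visual 0–100 rating vs untreated.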"}, "[2]": {"test_system": "morningglory (Ipomoea spp.)", "experiment": "Test A pre/postemergence", "procedure,_shortened": "as §1"}, "[3]": {"test_system": "redroot pigweed (Amaranthus retroflexus)", "experiment": "Test A pre/postemergence", "procedure,_shortened": "as §1"}, "[4]": {"test_system": "barnyardgrass (Echinochloa crus-galli)", "experiment": "Test A pre/postemergence", "procedure,_shortened": "as §1"}, "[5]": {"test_system": "giant foxtail (Setaria faberi)", "experiment": "Test A pre/postemergence", "procedure,_shortened": "as §1"}, "[6]": {"test_system": "velvetleaf (Abutilon theophrasti)", "experiment": "Test A pre/postemergence", "procedure,_shortened": "as §1"}, "[7]": {"test_system": "purple redstem (Ammannia coccinea)", "experiment": "Test E flooded paddy water application", "settings": "Flood, 21 days, scale 0 to 100 (0 no effect, 100 complete control)", "procedure,_shortened": "(§2)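 Weeds sown in sterilized Tama silt loam (2.6% organic matter), greenhouse 29.5/26.7° C, 16-h photoperiod; at 2.0–2.5-leaf stage pots flooded to 3 cm and compound added to paddy water. Visual rating vs untreated controls after 21 days, 0 (no effect) to 100 (complete control).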"}, "[8]": {"test_system": "ducksalad (Heteranthera limosa)", "experiment": "Test E flooded paddy water application", "settings": "Flood, 21 days, scale 0 to 100 (0 no effect, 100 complete control)", "procedure,_shortened": "as §2"}, "[9]": {"test_system": "junglerice (Echinochloa colona)", "experiment": "Test E flooded paddy water application", "settings": "Flood, 21 days, scale 0 to 100 (0 no effect, 100 complete control)", "procedure,_shortened": "as §2"}, "[10]": {"test_system": "early watergrass (Echinochloa oryzoides)", "experiment": "Test E flooded paddy water application", "settings": "Flood, 21 days, scale 0 to 100 (0 no effect, 100 complete control)", "procedure,_shortened": "as §2"}, "[11]": {"test_system": "barnyardgrass (Echinochloa crus-galli)", "experiment": "Test E flooded paddy water application", "settings": "Flood, 21 days, scale 0 to 100 (0 no effect, 100 complete control)", "procedure,_shortened": "as §2"}, "[12]": {"test_system": "water seeded rice seedlings (Oryza sativa cv. ‘Japonica-M202’)", "experiment": "Test E flooded paddy water application", "settings": "Flood, 21 days, scale 0 to 100 (0 no effect, 100 complete control)", "procedure,_shortened": "as §2"}, "[13]": {"test_system": "rice flatsedge (Cyperus iria)", "experiment": "Test E flooded paddy water application", "settings": "Flood, 21 days, scale 0 to 100 (0 no effect, 100 complete control)", "procedure,_shortened": "as §2"}, "[14]": {"test_system": "late watergrass (Echinochloa oryzicola)", "experiment": "Test E flooded paddy water application", "settings": "Flood, 21 days, scale 0 to 100 (0 no effect, 100 complete control)", "procedure,_shortened": "as §2"}, "[15]": {"test_system": "smallflower umbrella sedge (Cyperus difformis)", "experiment": "Test E flooded paddy water application", "settings": "Flood, 21 days, scale 0 to 100 (0 no effect, 100 complete control)", "procedure,_shortened": "as §2"}, "[16]": {"test_system": "transplanted rice seedlings (Oryza sativa cv. ‘Japonica-M202’)", "experiment": "Test E flooded paddy water application", "settings": "Flood, 21 days, scale 0 to 100 (0 no effect, 100 complete control)", "procedure,_shortened": "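Greenhouse pots of Tama silt loam with weeds and rice at 2.0–2.5-leaf stage, flooded to 3 cm; compounds applied directly into paddy water, depth maintained. Visual rating versus untreated controls after 21 days, 0 (no effect) to 100 (complete control); 29.5/26.7 °C, 16-h photoperiod.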"}, "[17]": {"test_system": "bearded (brdd.) sprangletop (Leptochloa fusca ssp. fascicularis)", "experiment": "Test E flooded paddy water application", "settings": "Flood, 21 days, scale 0 to 100 (0 no effect, 100 complete control)", "procedure,_shortened": "as §2"}, "[18]": {"settings": "Postemergence, 125 g ai/ha, 0 to 100 scale (0 no effect, 100 complete control)"}, "[19]": {"settings": "Postemergence, 500 g ai/ha, 0 to 100 scale (0 no effect, 100 complete control)"}, "[20]": {"settings": "Preemergence, 125 g ai/ha, 0 to 100 scale where 0 is no effect and 100 is complete control, approximately ten days"}, "[21]": {"settings": "Preemergence, 500 g ai/ha, 0 to 100 scale where 0 is no effect and 100 is complete control, approximately ten days"}}}
{"smiles": "COC(=O)c1nc(-c2ccc(C)cc2)nc(N)c1Cl", "note": "[Compound 84]", "values": [{"measurement": "Plant response rating, Crabgrass", "setting": "[1]; [18]", "result": 0}, {"measurement": "Plant response rating, Crabgrass", "setting": "[1]; [19]", "result": 10}, {"measurement": "Plant response rating, Crabgrass", "setting": "[1]; [20]", "result": 0}, {"measurement": "Plant response rating, Crabgrass", "setting": "[1]; [21]", "result": 15}, {"measurement": "Plant response rating, Morningglory", "setting": "[2]; [18]", "result": 5}, {"measurement": "Plant response rating, Morningglory", "setting": "[2]; [19]", "result": 20}, {"measurement": "Plant response rating, Morningglory", "setting": "[2]; [20]", "result": 0}, {"measurement": "Plant response rating, Morningglory", "setting": "[2]; [21]", "result": 0}, {"measurement": "Plant response rating, Pigweed", "setting": "[3]; [18]", "result": 60}, {"measurement": "Plant response rating, Pigweed", "setting": "[3]; [19]", "result": 65}, {"measurement": "Plant response rating, Pigweed", "setting": "[3]; [20]", "result": 0}, {"measurement": "Plant response rating, Pigweed", "setting": "[3]; [21]", "result": 80}, {"measurement": "Plant response rating, Barnyardgrass", "setting": "[4]; [18]", "result": 55}, {"measurement": "Plant response rating, Barnyardgrass", "setting": "[4]; [19]", "result": 80}, {"measurement": "Plant response rating, Barnyardgrass", "setting": "[4]; [20]", "result": 0}, {"measurement": "Plant response rating, Barnyardgrass", "setting": "[4]; [21]", "result": 25}, {"measurement": "Plant response rating, Foxtail, Giant", "setting": "[5]; [18]", "result": 0}, {"measurement": "Plant response rating, Foxtail, Giant", "setting": "[5]; [19]", "result": 20}, {"measurement": "Plant response rating, Foxtail, Giant", "setting": "[5]; [20]", "result": 0}, {"measurement": "Plant response rating, Foxtail, Giant", "setting": "[5]; [21]", "result": 20}, {"measurement": "Plant response rating, Velvetleaf", "setting": "[6]; [18]", "result": 75}, {"measurement": "Plant response rating, Velvetleaf", "setting": "[6]; [19]", "result": 90}, {"measurement": "Plant response rating, Velvetleaf", "setting": "[6]; [20]", "result": 15}, {"measurement": "Plant response rating, Velvetleaf", "setting": "[6]; [21]", "result": 70}, {"measurement": "Redstem plant response rating", "setting": "[7]; 32 g ai/ha", "result": 20}, {"measurement": "Redstem plant response rating", "setting": "[7]; 64 g ai/ha", "result": 20}, {"measurement": "Redstem plant response rating", "setting": "[7]; 125 g ai/ha", "result": 70}, {"measurement": "Redstem plant response rating", "setting": "[7]; 250 g ai/ha", "result": 100}, {"measurement": "Plant response rating, Redstem", "setting": "[7]; 16 g ai/ha", "result": 0}, {"measurement": "Ducksalad plant response rating", "setting": "[8]; 32 g ai/ha", "result": 100}, {"measurement": "Ducksalad plant response rating", "setting": "[8]; 64 g ai/ha", "result": 100}, {"measurement": "Ducksalad plant response rating", "setting": "[8]; 125 g ai/ha", "result": 100}, {"measurement": "Ducksalad plant response rating", "setting": "[8]; 250 g ai/ha", "result": 100}, {"measurement": "Plant response rating, Ducksalad", "setting": "[8]; 16 g ai/ha", "result": 100}, {"measurement": "Junglerice plant response rating", "setting": "[9]; 32 g ai/ha", "result": 0}, {"measurement": "Junglerice plant response rating", "setting": "[9]; 64 g ai/ha", "result": 0}, {"measurement": "Junglerice plant response rating", "setting": "[9]; 125 g ai/ha", "result": 50}, {"measurement": "Junglerice plant response rating", "setting": "[9]; 250 g ai/ha", "result": 50}, {"measurement": "Plant response rating, Junglerice", "setting": "[9]; 16 g ai/ha", "result": 0}, {"measurement": "Watergrass, Early plant response rating", "setting": "[10]; 32 g ai/ha", "result": 0}, {"measurement": "Watergrass, Early plant response rating", "setting": "[10]; 64 g ai/ha", "result": 10}, {"measurement": "Watergrass, Early plant response rating", "setting": "[10]; 125 g ai/ha", "result": 20}, {"measurement": "Watergrass, Early plant response rating", "setting": "[10]; 250 g ai/ha", "result": 30}, {"measurement": "Plant response rating, Watergrass, Early", "setting": "[10]; 16 g ai/ha", "result": 0}, {"measurement": "Barnyardgrass plant response rating", "setting": "[11]; 32 g ai/ha", "result": 0}, {"measurement": "Barnyardgrass plant response rating", "setting": "[11]; 64 g ai/ha", "result": 0}, {"measurement": "Barnyardgrass plant response rating", "setting": "[11]; 125 g ai/ha", "result": 20}, {"measurement": "Barnyardgrass plant response rating", "setting": "[11]; 250 g ai/ha", "result": 85}, {"measurement": "Plant response rating, Barnyardgrass", "setting": "[11]; 16 g ai/ha", "result": 0}, {"measurement": "Rice, Water Seeded plant response rating", "setting": "[12]; 32 g ai/ha", "result": 0}, {"measurement": "Rice, Water Seeded plant response rating", "setting": "[12]; 64 g ai/ha", "result": 0}, {"measurement": "Rice, Water Seeded plant response rating", "setting": "[12]; 125 g ai/ha", "result": 0}, {"measurement": "Rice, Water Seeded plant response rating", "setting": "[12]; 250 g ai/ha", "result": 30}, {"measurement": "Plant response rating, Rice, Water Seeded", "setting": "[12]; 16 g ai/ha", "result": 0}, {"measurement": "Flatsedge, Rice plant response rating", "setting": "[13]; 32 g ai/ha", "result": 35}, {"measurement": "Flatsedge, Rice plant response rating", "setting": "[13]; 64 g ai/ha", "result": 60}, {"measurement": "Flatsedge, Rice plant response rating", "setting": "[13]; 125 g ai/ha", "result": 60}, {"measurement": "Flatsedge, Rice plant response rating", "setting": "[13]; 250 g ai/ha", "result": 80}, {"measurement": "Plant response rating, Flatsedge, Rice", "setting": "[13]; 16 g ai/ha", "result": 25}, {"measurement": "Watergrass, Late plant response rating", "setting": "[14]; 32 g ai/ha", "result": 0}, {"measurement": "Watergrass, Late plant response rating", "setting": "[14]; 64 g ai/ha", "result": 0}, {"measurement": "Watergrass, Late plant response rating", "setting": "[14]; 125 g ai/ha", "result": 0}, {"measurement": "Watergrass, Late plant response rating", "setting": "[14]; 250 g ai/ha", "result": 20}, {"measurement": "Plant response rating, Watergrass, Late", "setting": "[14]; 16 g ai/ha", "result": 0}, {"measurement": "Sedge, Umbrella plant response rating", "setting": "[15]; 32 g ai/ha", "result": 80}, {"measurement": "Sedge, Umbrella plant response rating", "setting": "[15]; 64 g ai/ha", "result": 80}, {"measurement": "Sedge, Umbrella plant response rating", "setting": "[15]; 125 g ai/ha", "result": 90}, {"measurement": "Sedge, Umbrella plant response rating", "setting": "[15]; 250 g ai/ha", "result": 100}, {"measurement": "Plant response rating, Sedge, Umbrella", "setting": "[15]; 16 g ai/ha", "result": 70}, {"measurement": "Rice, Transplanted plant response rating", "setting": "[16]; 32 g ai/ha", "result": 0}, {"measurement": "Rice, Transplanted plant response rating", "setting": "[16]; 64 g ai/ha", "result": 0}, {"measurement": "Rice, Transplanted plant response rating", "setting": "[16]; 125 g ai/ha", "result": 0}, {"measurement": "Rice, Transplanted plant response rating", "setting": "[16]; 250 g ai/ha", "result": 20}, {"measurement": "Plant response rating, Rice, Transplanted", "setting": "[16]; 16 g ai/ha", "result": 0}, {"measurement": "Sprangletop, Brdd. plant response rating", "setting": "[17]; 32 g ai/ha", "result": 0}, {"measurement": "Sprangletop, Brdd. plant response rating", "setting": "[17]; 64 g ai/ha", "result": 0}, {"measurement": "Sprangletop, Brdd. plant response rating", "setting": "[17]; 125 g ai/ha", "result": 0}, {"measurement": "Sprangletop, Brdd. plant response rating", "setting": "[17]; 250 g ai/ha", "result": 40}, {"measurement": "Plant response rating, Sprangletop, Brdd.", "setting": "[17]; 16 g ai/ha", "result": 0}]}
